# Test system: BHK-21 cells
# Assay: Anti-fibrosis activity test: inhibition of BHK-21 cell proliferation (CCK-8)
# Format: cell-based
# Details: Mesocricetus auratus, BHK-21, 48 h, CCK-8, 48 hours after administration
# Summary of the method: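 Cells plated 2×10^4 cells/mL; 24 h attach; compound dilutions, triplicate, 48 h, 37° C/5% CO2; CCK-8 2 h; A450; IR = (1−Ai/Ao)×100%; IC50 by curve fit.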
row,SMILES,IC50
1,"CCOC(=O)/C=C/Cn1c2c(c(=O)c3ccccc31)C(=O)n1cccc1-2 [Compound 661a, Ethyl (E)-4-(9,10-dioxo-9H-pyrrolizino[1,2-b]quinolin-4(10H)-yl)but-2-enoate]",< 0.05 mM
2,"CCOC(=O)Cn1c2c(c(=O)c3ccccc31)C(=O)n1cccc1-2 [Compound 654a, Ethyl 2-(9,10-dioxo-9H-pyrrolizino[1,2-b]quinolin-4(10H)-yl)acetate]",5 to 20 mM
3,"O=C1c2c(nc3cc(O)ccc3c2O)-c2cccn21 [Compound 524b, 6,9-dihydroxy-10H-pyrrolizino[1,2-b]quinolin-10-one]",0.05 to 5 mM
4,"O=C1c2c(n(Cc3ccc(F)cc3)c3cccc(F)c3c2=O)-c2cccn21 [Compound 468a, 8-Fluoro-4-(4-fluorobenzyl)-9H-pyrrolizino[1,2-b]quinoline-9,10(4H)-dione]",< 0.05 mM
5,"O=C1c2c(nc3ccccc3c2OCc2cccc(Cl)c2F)-c2cccn21 [Compound 582b, 9-((3-chloro-2-fluorobenzyl)oxy)-10H-pyrrolizino[1,2-b]quinolin-10-one]",0.05 to 5 mM

# Test system: human lung fibroblasts HFL1
# Assay: Anti-fibrosis activity test: inhibition of proliferation of human lung fibroblasts HFL1 (CCK-8)
# Format: cell-based
# Details: Homo sapiens, HFL1, 48 h, human lung fibroblasts HFL1, CCK-8, 48 hours
# Summary of the method: (§1)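 Seed 2×10^4 cells/mL; adhere 24 h, 37° C/5% CO2. Compounds, serial concentrations, triplicate, 48 h. CCK-8 2 h, A450. IR=(1−Ai/Ao)×100% vs blank; IC50 fitted. Pirfenidone as positive control.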
row,SMILES,IC50
1,"CCOC(=O)/C=C/Cn1c2c(c(=O)c3ccccc31)C(=O)n1cccc1-2 [Compound 661a, Ethyl (E)-4-(9,10-dioxo-9H-pyrrolizino[1,2-b]quinolin-4(10H)-yl)but-2-enoate]",0.05 to 5 mM
2,"CCOC(=O)Cn1c2c(c(=O)c3ccccc31)C(=O)n1cccc1-2 [Compound 654a, Ethyl 2-(9,10-dioxo-9H-pyrrolizino[1,2-b]quinolin-4(10H)-yl)acetate]",0.05 to 5 mM
3,"O=C1c2c(nc3cc(O)ccc3c2O)-c2cccn21 [Compound 524b, 6,9-dihydroxy-10H-pyrrolizino[1,2-b]quinolin-10-one]",0.05 to 5 mM
4,"O=C1c2c(n(Cc3ccc(F)cc3)c3cccc(F)c3c2=O)-c2cccn21 [Compound 468a, 8-Fluoro-4-(4-fluorobenzyl)-9H-pyrrolizino[1,2-b]quinoline-9,10(4H)-dione]",0.05 to 5 mM
5,"O=C1c2c(nc3ccccc3c2OCc2cccc(Cl)c2F)-c2cccn21 [Compound 582b, 9-((3-chloro-2-fluorobenzyl)oxy)-10H-pyrrolizino[1,2-b]quinolin-10-one]",0.05 to 5 mM

# Test system: human hepatic stellate cells LX-2
# Assay: Anti-fibrosis activity test: inhibition of proliferation of human hepatic stellate cells LX-2 (CCK-8)
# Format: cell-based
# Details: Homo sapiens, 48 h, human hepatic stellate cells LX-2, CCK-8, 48 hours
# Summary of the method: as §1
row,SMILES,IC50
1,"CCOC(=O)/C=C/Cn1c2c(c(=O)c3ccccc31)C(=O)n1cccc1-2 [Compound 661a, Ethyl (E)-4-(9,10-dioxo-9H-pyrrolizino[1,2-b]quinolin-4(10H)-yl)but-2-enoate]",0.05 to 5 mM
2,"CCOC(=O)Cn1c2c(c(=O)c3ccccc31)C(=O)n1cccc1-2 [Compound 654a, Ethyl 2-(9,10-dioxo-9H-pyrrolizino[1,2-b]quinolin-4(10H)-yl)acetate]",0.05 to 5 mM
3,"O=C1c2c(nc3cc(O)ccc3c2O)-c2cccn21 [Compound 524b, 6,9-dihydroxy-10H-pyrrolizino[1,2-b]quinolin-10-one]",0.05 to 5 mM
4,"O=C1c2c(n(Cc3ccc(F)cc3)c3cccc(F)c3c2=O)-c2cccn21 [Compound 468a, 8-Fluoro-4-(4-fluorobenzyl)-9H-pyrrolizino[1,2-b]quinoline-9,10(4H)-dione]",0.05 to 5 mM
5,"O=C1c2c(nc3ccccc3c2OCc2cccc(Cl)c2F)-c2cccn21 [Compound 582b, 9-((3-chloro-2-fluorobenzyl)oxy)-10H-pyrrolizino[1,2-b]quinolin-10-one]",0.05 to 5 mM

# Test system: human fibrosarcoma cells HT-1080
# Assay: Anti-fibrosis activity test: inhibition of proliferation of human fibrosarcoma cells HT-1080 (CCK-8)
# Format: cell-based
# Details: Homo sapiens, HT-1080, 48 h, human fibrosarcoma cells HT-1080, CCK-8, 48 hours
# Summary of the method: as §1
row,SMILES,IC50
1,"CCOC(=O)/C=C/Cn1c2c(c(=O)c3ccccc31)C(=O)n1cccc1-2 [Compound 661a, Ethyl (E)-4-(9,10-dioxo-9H-pyrrolizino[1,2-b]quinolin-4(10H)-yl)but-2-enoate]",0.05 to 5 mM
2,"CCOC(=O)Cn1c2c(c(=O)c3ccccc31)C(=O)n1cccc1-2 [Compound 654a, Ethyl 2-(9,10-dioxo-9H-pyrrolizino[1,2-b]quinolin-4(10H)-yl)acetate]",0.05 to 5 mM
3,"O=C1c2c(nc3cc(O)ccc3c2O)-c2cccn21 [Compound 524b, 6,9-dihydroxy-10H-pyrrolizino[1,2-b]quinolin-10-one]",0.05 to 5 mM
4,"O=C1c2c(n(Cc3ccc(F)cc3)c3cccc(F)c3c2=O)-c2cccn21 [Compound 468a, 8-Fluoro-4-(4-fluorobenzyl)-9H-pyrrolizino[1,2-b]quinoline-9,10(4H)-dione]",0.05 to 5 mM
5,"O=C1c2c(nc3ccccc3c2OCc2cccc(Cl)c2F)-c2cccn21 [Compound 582b, 9-((3-chloro-2-fluorobenzyl)oxy)-10H-pyrrolizino[1,2-b]quinolin-10-one]",0.05 to 5 mM

# Test system: human dermal fibroblasts CCC-ESF-1
# Assay: Anti-fibrosis activity test: inhibition of proliferation of human dermal fibroblasts CCC-ESF-1 (CCK-8)
# Format: cell-based
# Details: Fibroblast; human dermal fibroblasts CCC-ESF-1, CCK-8, 48 hours
# Summary of the method: as §1
row,SMILES,IC50
1,"CCOC(=O)/C=C/Cn1c2c(c(=O)c3ccccc31)C(=O)n1cccc1-2 [Compound 661a, Ethyl (E)-4-(9,10-dioxo-9H-pyrrolizino[1,2-b]quinolin-4(10H)-yl)but-2-enoate]",0.05 to 5 mM
2,"CCOC(=O)Cn1c2c(c(=O)c3ccccc31)C(=O)n1cccc1-2 [Compound 654a, Ethyl 2-(9,10-dioxo-9H-pyrrolizino[1,2-b]quinolin-4(10H)-yl)acetate]",< 0.05 mM
3,"O=C1c2c(nc3cc(O)ccc3c2O)-c2cccn21 [Compound 524b, 6,9-dihydroxy-10H-pyrrolizino[1,2-b]quinolin-10-one]",0.05 to 5 mM
4,"O=C1c2c(n(Cc3ccc(F)cc3)c3cccc(F)c3c2=O)-c2cccn21 [Compound 468a, 8-Fluoro-4-(4-fluorobenzyl)-9H-pyrrolizino[1,2-b]quinoline-9,10(4H)-dione]",0.05 to 5 mM
5,"O=C1c2c(nc3ccccc3c2OCc2cccc(Cl)c2F)-c2cccn21 [Compound 582b, 9-((3-chloro-2-fluorobenzyl)oxy)-10H-pyrrolizino[1,2-b]quinolin-10-one]",0.05 to 5 mM

# Test system: human embryonic lung fibroblast IMR-90
# Assay: Anti-fibrosis activity test: inhibition of proliferation of human embryonic lung fibroblast IMR-90 (CCK-8)
# Format: cell-based
# Details: human embryonic lung fibroblast IMR-90, CCK-8, 48 hours
# Summary of the method: as §1
row,SMILES,IC50
1,"CCOC(=O)/C=C/Cn1c2c(c(=O)c3ccccc31)C(=O)n1cccc1-2 [Compound 661a, Ethyl (E)-4-(9,10-dioxo-9H-pyrrolizino[1,2-b]quinolin-4(10H)-yl)but-2-enoate]",0.05 to 5 mM
2,"CCOC(=O)Cn1c2c(c(=O)c3ccccc31)C(=O)n1cccc1-2 [Compound 654a, Ethyl 2-(9,10-dioxo-9H-pyrrolizino[1,2-b]quinolin-4(10H)-yl)acetate]",0.05 to 5 mM
3,"O=C1c2c(nc3cc(O)ccc3c2O)-c2cccn21 [Compound 524b, 6,9-dihydroxy-10H-pyrrolizino[1,2-b]quinolin-10-one]",0.05 to 5 mM
4,"O=C1c2c(n(Cc3ccc(F)cc3)c3cccc(F)c3c2=O)-c2cccn21 [Compound 468a, 8-Fluoro-4-(4-fluorobenzyl)-9H-pyrrolizino[1,2-b]quinoline-9,10(4H)-dione]",0.05 to 5 mM
5,"O=C1c2c(nc3ccccc3c2OCc2cccc(Cl)c2F)-c2cccn21 [Compound 582b, 9-((3-chloro-2-fluorobenzyl)oxy)-10H-pyrrolizino[1,2-b]quinolin-10-one]",0.05 to 5 mM

# Test system: cardiac fibroblast RAT-iCell-C002
# Assay: Anti-fibrosis activity test: inhibition of proliferation of cardiac fibroblast RAT-iCell-C002 (CCK-8)
# Format: cell-based
# Details: Cardiac fibroblast, 48 h, cardiac fibroblast RAT-iCell-C002, CCK-8, 48 hours
# Summary of the method: as §1
row,SMILES,IC50
1,"CCOC(=O)/C=C/Cn1c2c(c(=O)c3ccccc31)C(=O)n1cccc1-2 [Compound 661a, Ethyl (E)-4-(9,10-dioxo-9H-pyrrolizino[1,2-b]quinolin-4(10H)-yl)but-2-enoate]",0.05 to 5 mM
2,"CCOC(=O)Cn1c2c(c(=O)c3ccccc31)C(=O)n1cccc1-2 [Compound 654a, Ethyl 2-(9,10-dioxo-9H-pyrrolizino[1,2-b]quinolin-4(10H)-yl)acetate]",0.05 to 5 mM
3,"O=C1c2c(nc3cc(O)ccc3c2O)-c2cccn21 [Compound 524b, 6,9-dihydroxy-10H-pyrrolizino[1,2-b]quinolin-10-one]",0.05 to 5 mM
4,"O=C1c2c(n(Cc3ccc(F)cc3)c3cccc(F)c3c2=O)-c2cccn21 [Compound 468a, 8-Fluoro-4-(4-fluorobenzyl)-9H-pyrrolizino[1,2-b]quinoline-9,10(4H)-dione]",0.05 to 5 mM
5,"O=C1c2c(nc3ccccc3c2OCc2cccc(Cl)c2F)-c2cccn21 [Compound 582b, 9-((3-chloro-2-fluorobenzyl)oxy)-10H-pyrrolizino[1,2-b]quinolin-10-one]",0.05 to 5 mM

# Test system: NF-κB
# Assay: Immunological activity test: inhibition of NF-κB activity
# Format: cell-based
# Details: initial concentration of 30 μM; a/b isomers given as first/second symbol; read-out: IC50 (μM), inhibitory activity against NF-κB
# Summary of the method: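 Parthenolide as positive control; starting test concentration 30 μM; inhibition of NF-κB activity analysed further to yield IC50.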
row,SMILES,IC50
1,"CCOC(=O)/C=C/Cn1c2c(c(=O)c3ccccc31)C(=O)n1cccc1-2 [Compound 661a, Ethyl (E)-4-(9,10-dioxo-9H-pyrrolizino[1,2-b]quinolin-4(10H)-yl)but-2-enoate]",0.1 to 1 µM
2,"CCOC(=O)Cn1c2c(c(=O)c3ccccc31)C(=O)n1cccc1-2 [Compound 654a, Ethyl 2-(9,10-dioxo-9H-pyrrolizino[1,2-b]quinolin-4(10H)-yl)acetate]",1 to 10 µM
3,"O=C1c2c(nc3cc(O)ccc3c2O)-c2cccn21 [Compound 524b, 6,9-dihydroxy-10H-pyrrolizino[1,2-b]quinolin-10-one]",10 to 50 µM
4,"O=C1c2c(n(Cc3ccc(F)cc3)c3cccc(F)c3c2=O)-c2cccn21 [Compound 468a, 8-Fluoro-4-(4-fluorobenzyl)-9H-pyrrolizino[1,2-b]quinoline-9,10(4H)-dione]",0.1 to 1 µM
5,"O=C1c2c(nc3ccccc3c2OCc2cccc(Cl)c2F)-c2cccn21 [Compound 582b, 9-((3-chloro-2-fluorobenzyl)oxy)-10H-pyrrolizino[1,2-b]quinolin-10-one]",1 to 10 µM

# Test system: mouse macrophages (RAW264.7)
# Assay: Lipopolysaccharide-induced NO secretion in macrophages (Griess)
# Format: cell-based
# Details: Mus musculus, RAW264.7, 24 h, RAW264.7, LPS 1 μg/ml, a/b isomers given as first/second symbol, read-out: IC50 (μM), inhibition of lipopolysaccharide-induced NO secretion in macrophages
# Summary of the method: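 LPS 1 μg/ml, 24 h, RAW264.7 (DMEM/10% FBS); cpds at varied concs. Supernatant NO by Griess, A548; % inhibition vs blank medium.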
row,SMILES,IC50
1,"CCOC(=O)/C=C/Cn1c2c(c(=O)c3ccccc31)C(=O)n1cccc1-2 [Compound 661a, Ethyl (E)-4-(9,10-dioxo-9H-pyrrolizino[1,2-b]quinolin-4(10H)-yl)but-2-enoate]",1 to 10 µM
2,"CCOC(=O)Cn1c2c(c(=O)c3ccccc31)C(=O)n1cccc1-2 [Compound 654a, Ethyl 2-(9,10-dioxo-9H-pyrrolizino[1,2-b]quinolin-4(10H)-yl)acetate]",1 to 10 µM
3,"O=C1c2c(nc3cc(O)ccc3c2O)-c2cccn21 [Compound 524b, 6,9-dihydroxy-10H-pyrrolizino[1,2-b]quinolin-10-one]",1 to 10 µM
4,"O=C1c2c(n(Cc3ccc(F)cc3)c3cccc(F)c3c2=O)-c2cccn21 [Compound 468a, 8-Fluoro-4-(4-fluorobenzyl)-9H-pyrrolizino[1,2-b]quinoline-9,10(4H)-dione]",1 to 10 µM
5,"O=C1c2c(nc3ccccc3c2OCc2cccc(Cl)c2F)-c2cccn21 [Compound 582b, 9-((3-chloro-2-fluorobenzyl)oxy)-10H-pyrrolizino[1,2-b]quinolin-10-one]",1 to 10 µM
